Results as given in ChEMBL document CHEMBL1201862, “PubChem BioAssay data set” (2004).
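Exposure lasted 48 hours, with cells grown in 96-well plates and compounds tested at five concentrations. GI50 is the concentration that inhibits growth by half.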 The source made the active and inactive calls. No stated cut-off is given here; in the data, active = GI50 up to about 1.1 µM and inactive = higher.

Tests used:
Assay in all cases: NCI-60 cell line screen, 48 h
[1] = tested on: A498
[2] = tested on: A549
[3] = tested on: BT-549
[4] = tested on: CAKI-1
[5] = tested on: DU-145
[6] = tested on: EKVX
[7] = tested on: HCC 2998
[8] = tested on: HCT-116
[9] = tested on: HL-60
[10] = tested on: HOP-62
[11] = tested on: LOX IMVI
[12] = tested on: Malme-3M
[13] = tested on: NCI-H23
[14] = tested on: OVCAR-8
[15] = tested on: SF-268
[16] = tested on: SF-539
[17] = tested on: SK-MEL-5
[18] = tested on: SW-620
[19] = tested on: T47D
[20] = tested on: TK-10

C(CCc1nnc2c(n1)CCCC2)Cc1nnc2c(n1)CCCC2
GI50 [1]: > 100 µM (inactive)
GI50 [2]: > 100 µM (inactive)
GI50 [3]: > 100 µM (inactive)
GI50 [4]: > 100 µM (inactive)
GI50 [5]: > 100 µM (inactive)
GI50 [6]: > 100 µM (inactive)
GI50 [7]: > 100 µM (inactive)
GI50 [8]: > 100 µM (inactive)
GI50 [9]: > 100 µM (inactive)
GI50 [10]: > 100 µM (inactive)
GI50 [11]: > 100 µM (inactive)
GI50 [12]: > 100 µM (inactive)
GI50 [13]: > 100 µM (inactive)
GI50 [14]: > 100 µM (inactive)
GI50 [15]: > 100 µM (inactive)
GI50 [16]: > 100 µM (inactive)
GI50 [17]: > 100 µM (inactive)
GI50 [18]: > 100 µM (inactive)
GI50 [19]: > 100 µM (inactive)
GI50 [20]: > 100 µM (inactive)

COC(C)(C)[C@@H](O)[C@H]1C[C@H](C)[C@@]2(CC[C@]3(C)[C@@H]2CC[C@@H]2[C@@]4(C)CC[C@@H](OC(C)=O)C(C)(C)[C@@H]4C[C@@H](OC4OC(COC(C)=O)C(O)C(O)C4O)[C@]23C)O1 (stereo not given in full)
GI50 [1]: 6.41 µM (inactive)
GI50 [2]: 4.01 µM (inactive)
GI50 [3]: 4.86 µM (inactive)
GI50 [4]: 8.43 µM (inactive)
GI50 [5]: 4.37 µM (inactive)
GI50 [6]: 5.74 µM (inactive)
GI50 [7]: 0.662 µM (active)
GI50 [8]: 3.25 µM (inactive)
GI50 [9]: 2.1 µM (inactive)
GI50 [10]: 12.3 µM (inactive)
GI50 [11]: 3.9 µM (inactive)
GI50 [12]: 10.5 µM (inactive)
GI50 [13]: 10.2 µM (inactive)
GI50 [14]: 5.33 µM (inactive)
GI50 [15]: 4.98 µM (inactive)
GI50 [16]: 10.1 µM (inactive)
GI50 [17]: 6.53 µM (inactive)
GI50 [18]: 6.81 µM (inactive)
GI50 [19]: 4.14 µM (inactive)
GI50 [20]: 12.2 µM (inactive)

Cc1nnc2n1N=C(c1cc(F)c(Cl)cc1Cl)/C(=C/c1ccc(Cl)cc1)S2
GI50 [1]: 19.1 µM (inactive)
GI50 [2]: 18 µM (inactive)
GI50 [3]: 18.7 µM (inactive)
GI50 [4]: 10.1 µM (inactive)
GI50 [5]: 17.1 µM (inactive)
GI50 [6]: 9.42 µM (inactive)
GI50 [7]: 13.4 µM (inactive)
GI50 [8]: 7 µM (inactive)
GI50 [9]: 26.4 µM (inactive)
GI50 [10]: 15.7 µM (inactive)
GI50 [11]: 9.33 µM (inactive)
GI50 [12]: 20.6 µM (inactive)
GI50 [13]: 14.5 µM (inactive)
GI50 [14]: 16.1 µM (inactive)
GI50 [15]: 41.8 µM (inactive)
GI50 [16]: 25.9 µM (inactive)
GI50 [17]: 19.2 µM (inactive)
GI50 [18]: 37.7 µM (inactive)
GI50 [19]: 34 µM (inactive)
GI50 [20]: 28.7 µM (inactive)

CC(C)(Cl)C(Cl)CC/C(CBr)=C(\Cl)CBr (stereo not given)
GI50 [1]: 19.2 µM (inactive)
GI50 [2]: 10.6 µM (inactive)
GI50 [3]: 1.75 µM (inactive)
GI50 [4]: 2.62 µM (inactive)
GI50 [5]: 7.5 µM (inactive)
GI50 [6]: 16.5 µM (inactive)
GI50 [7]: 9.68 µM (inactive)
GI50 [8]: 2.23 µM (inactive)
GI50 [9]: 0.32 µM (active)
GI50 [10]: 2.24 µM (inactive)
GI50 [11]: 0.209 µM (active)
GI50 [12]: 2.11 µM (inactive)
GI50 [13]: 1.85 µM (inactive)
GI50 [14]: 1.95 µM (inactive)
GI50 [15]: 3.3 µM (inactive)
GI50 [16]: 2.4 µM (inactive)
GI50 [17]: 1.79 µM (inactive)
GI50 [18]: 1.6 µM (inactive)
GI50 [19]: 1.96 µM (inactive)
GI50 [20]: 1.95 µM (inactive)

CCC/C(Cl)=N\OC(=O)Nc1ccc(OC(F)(F)F)cc1
GI50 [1]: 23.8 µM (inactive)
GI50 [2]: 20.2 µM (inactive)
GI50 [3]: 20.9 µM (inactive)
GI50 [4]: 1.66 µM (inactive)
GI50 [5]: 18 µM (inactive)
GI50 [6]: 10.1 µM (inactive)
GI50 [7]: 19.5 µM (inactive)
GI50 [8]: 9.4 µM (inactive)
GI50 [9]: 3.25 µM (inactive)
GI50 [10]: 18.1 µM (inactive)
GI50 [11]: 2.72 µM (inactive)
GI50 [12]: 1.68 µM (inactive)
GI50 [13]: 21.4 µM (inactive)
GI50 [14]: 16.7 µM (inactive)
GI50 [15]: 24.7 µM (inactive)
GI50 [16]: 16.7 µM (inactive)
GI50 [17]: 5.4 µM (inactive)
GI50 [18]: 2.53 µM (inactive)
GI50 [19]: 2.79 µM (inactive)
GI50 [20]: 3.3 µM (inactive)

O=C(C=P(c1ccccc1)(c1ccccc1)c1ccccc1)c1cccc(-c2cccc([N+](=O)[O-])c2)c1
GI50 [1]: 1.83 µM (inactive)
GI50 [2]: 3.62 µM (inactive)
GI50 [3]: 4.74 µM (inactive)
GI50 [4]: 1.86 µM (inactive)
GI50 [5]: 6.78 µM (inactive)
GI50 [6]: 4.3 µM (inactive)
GI50 [7]: 3.27 µM (inactive)
GI50 [8]: 3.55 µM (inactive)
GI50 [9]: 1.76 µM (inactive)
GI50 [10]: 8.04 µM (inactive)
GI50 [11]: 2.56 µM (inactive)
GI50 [12]: 2.86 µM (inactive)
GI50 [13]: 3.44 µM (inactive)
GI50 [14]: 3.57 µM (inactive)
GI50 [15]: 3.93 µM (inactive)
GI50 [16]: 4.56 µM (inactive)
GI50 [17]: 2.37 µM (inactive)
GI50 [18]: 3.33 µM (inactive)
GI50 [19]: 4.9 µM (inactive)
GI50 [20]: 3.18 µM (inactive)

C(=C\c1nccs1)/c1cccc(/C=C/c2nccs2)n1
GI50 [1]: > 50 µM (inactive)
GI50 [2]: > 50 µM (inactive)
GI50 [3]: > 50 µM (inactive)
GI50 [4]: > 50 µM (inactive)
GI50 [5]: > 50 µM (inactive)
GI50 [6]: 49 µM (inactive)
GI50 [7]: 27.7 µM (inactive)
GI50 [8]: > 50 µM (inactive)
GI50 [9]: > 50 µM (inactive)
GI50 [10]: > 50 µM (inactive)
GI50 [11]: > 50 µM (inactive)
GI50 [12]: > 50 µM (inactive)
GI50 [13]: > 50 µM (inactive)
GI50 [14]: 47.9 µM (inactive)
GI50 [15]: > 50 µM (inactive)
GI50 [16]: > 50 µM (inactive)
GI50 [17]: > 50 µM (inactive)
GI50 [18]: > 50 µM (inactive)
GI50 [19]: 31.2 µM (inactive)
GI50 [20]: > 50 µM (inactive)

Nc1c(C(=O)c2ccccc2)[nH]c(NCc2ccccc2)c1C(=S)Nc1ccccc1
GI50 [1]: > 100 µM (inactive)
GI50 [2]: > 100 µM (inactive)
GI50 [3]: > 100 µM (inactive)
GI50 [4]: > 100 µM (inactive)
GI50 [5]: > 100 µM (inactive)
GI50 [6]: > 100 µM (inactive)
GI50 [7]: > 100 µM (inactive)
GI50 [8]: > 100 µM (inactive)
GI50 [9]: > 100 µM (inactive)
GI50 [10]: > 100 µM (inactive)
GI50 [11]: > 100 µM (inactive)
GI50 [12]: > 100 µM (inactive)
GI50 [13]: > 100 µM (inactive)
GI50 [14]: > 100 µM (inactive)
GI50 [15]: > 100 µM (inactive)
GI50 [16]: > 100 µM (inactive)
GI50 [17]: > 100 µM (inactive)
GI50 [18]: > 100 µM (inactive)
GI50 [19]: > 100 µM (inactive)
GI50 [20]: > 100 µM (inactive)

CC1(C)OC[C@@H](O)[C@H](C#N)CO1
GI50 [1]: > 100 µM (inactive)
GI50 [2]: > 100 µM (inactive)
GI50 [3]: > 100 µM (inactive)
GI50 [4]: > 100 µM (inactive)
GI50 [5]: > 100 µM (inactive)
GI50 [6]: > 100 µM (inactive)
GI50 [7]: > 100 µM (inactive)
GI50 [8]: > 100 µM (inactive)
GI50 [9]: > 100 µM (inactive)
GI50 [10]: > 100 µM (inactive)
GI50 [11]: > 100 µM (inactive)
GI50 [12]: > 100 µM (inactive)
GI50 [13]: > 100 µM (inactive)
GI50 [14]: > 100 µM (inactive)
GI50 [15]: > 100 µM (inactive)
GI50 [16]: > 100 µM (inactive)
GI50 [17]: > 100 µM (inactive)
GI50 [18]: > 100 µM (inactive)
GI50 [19]: > 100 µM (inactive)
GI50 [20]: > 100 µM (inactive)

CC(C)(C)c1ccc(S(=O)(=O)N2C(c3cccc(C4CC[C@@H](C(=O)O)N4S(=O)(=O)c4ccc(C(C)(C)C)cc4)c3)CC[C@H]2C(=O)O)cc1 (stereo not given in full)
GI50 [1]: > 100 µM (inactive)
GI50 [2]: 66.7 µM (inactive)
GI50 [3]: 50 µM (inactive)
GI50 [4]: 42.5 µM (inactive)
GI50 [5]: 75.3 µM (inactive)
GI50 [6]: 30.1 µM (inactive)
GI50 [7]: 47.4 µM (inactive)
GI50 [8]: 38.1 µM (inactive)
GI50 [9]: 43.5 µM (inactive)
GI50 [10]: 98.4 µM (inactive)
GI50 [11]: 79.4 µM (inactive)
GI50 [12]: 87.1 µM (inactive)
GI50 [13]: 40.2 µM (inactive)
GI50 [14]: 67.5 µM (inactive)
GI50 [15]: 77.8 µM (inactive)
GI50 [16]: 87.3 µM (inactive)
GI50 [17]: 57.7 µM (inactive)
GI50 [18]: 69.3 µM (inactive)
GI50 [19]: 29.9 µM (inactive)
GI50 [20]: 65.5 µM (inactive)

COc1cc(O)c2c(=O)c(OC)c(-c3ccc(OC)c(O)c3)oc2c1 [AYANIN]
GI50 [1]: 3.44 µM (inactive)
GI50 [2]: 76.6 µM (inactive)
GI50 [3]: 20.4 µM (inactive)
GI50 [4]: 6.71 µM (inactive)
GI50 [5]: 20 µM (inactive)
GI50 [6]: 62.5 µM (inactive)
GI50 [7]: 28.2 µM (inactive)
GI50 [8]: 32.1 µM (inactive)
GI50 [9]: > 100 µM (inactive)
GI50 [10]: 31.5 µM (inactive)
GI50 [11]: 20.7 µM (inactive)
GI50 [12]: 24 µM (inactive)
GI50 [13]: 69.5 µM (inactive)
GI50 [14]: 66.5 µM (inactive)
GI50 [15]: 33.2 µM (inactive)
GI50 [16]: 18.4 µM (inactive)
GI50 [17]: 20.4 µM (inactive)
GI50 [18]: > 100 µM (inactive)
GI50 [19]: 3.83 µM (inactive)
GI50 [20]: 17.6 µM (inactive)
